In patent US12398125B2, “Nitrogen-containing saturated heterocyclyl derivative” (Sumitomo Pharma Co., Ltd., priority 2022, dated 2025):
Counter-ions that a name gives are not always drawn.

Tested on: α-synuclein aggregate in neurospheroid prepared from human iPS cells with a mutation in PLA2G6 gene
Assay: Test 2: suppressing the accumulation of α-synuclein aggregate with neurospheroid
Type: cell-based
Conditions: 120 h, DMSO = 100%, compound added day 4, measured day 9 after induction of differentiation; for activity at 0.1 µM: 100 nM, read-out: Amount of aggregate (%) 100 nM; for activity at 1 µM: 1000 nM, read-out: Amount of aggregate (%) 1000 nM
Description: Test 2: Evaluation of Suppressing the Accumulation of α-Synuclein Aggregate with Neurospheroid Prepared from Human iPS Cells with a Mutation in PLA2G6 Gene
(1) Induction of Differentiation from Human iPS Cell to Neural Cell
Neural stem cells were induced from PLA2G6 gene mutant iPS cells with PSC Neuronal Induction Medium (Thermo Fisher Scientific Inc., cat #A1647801). Neurospheroid was prepared from the induced neural stem cells by three-dimensional culture system, and preserved with BrainPhys Neuronal Medium (STEMCELL Technologies, cat #ST-05793) comprising NeuroCult SM1 Neuronal Supplement, N2 Supplement-A, 20 ng/mL BDNF, 20 ng/mL GDNF, 1 mM dibutyryl cAMP, and 200 nM ascorbic acid. Half of the culture medium was replaced on day 2 and day 4 after the induction of differentiation.
The test compound was diluted with the culture medium so as to be twice the final concentration, and an equal volume of the twice-concentrated solution was added to each well when half of the culture medium was replaced on day 4 after induction of differentiation.
(2) Evaluation of the Amount of α-Synuclein Aggregate
From the neurospheroid 9 days after the induction of differentiation, proteins were extracted with a TBS solution containing 1% TritionX-100, and the extracted proteins were subjected to a protein analysis with Simple Western system (Protein Simple, Inc., cat #SM-W008) using an α-synuclein antibody (Thermo Fisher Scientific Inc., cat #AHB0261) to measure the amount of the α-synuclein aggregate.
Assuming that the amount of the aggregate in the neurospheroid added with a DMSO solution is 100%, the amount of the aggregate in the neurospheroid added with each test compound was evaluated.

| SMILES | activity at 0.1 µM | activity at 1 µM |
| --- | --- | --- |
| CC1(C(=O)N2CCC(c3cnc(C(F)(F)F)cn3)CC2)COC1 [Example 59] | 100% | 87% |
| CC1(C(=O)N2CCC(c3ccc(C(F)(F)F)nc3)CC2)CNC1 [Example 33, (3-Methylazetidin-3-yl){4-[6-(trifluoromethyl)pyridin-3-yl]piperidin-1-yl}methanone] | 22% | 22% |
| CCC1(C(=O)N2CC[C@H](c3ccc(C(F)(F)F)nc3)C[C@@H]2C)COC1 [Example 18] | 81% | 80% |
| CCC1(C(=O)N2CCC(c3cnccc3C(F)(F)F)CC2)COC1 [Example 8] | 7% | 13% |
| CN1CC(C)(C(=O)N2CCCC(c3ccc(C(F)(F)F)nc3)C2)C1 (stereo not shown) [Example 46] | 38% | 25% |
| O=C(N1CCCOCC1)N1CCC(c2ccc(C(F)(F)F)nc2)CC1 [Example 60, (1,4-Oxazepan-4-yl){4-[6-(trifluoromethyl)pyridin-3-yl]piperidin-1-yl}methanone] | 67% | 96% |
| CN1CCC(C(=O)N2CCC(c3ccc(C(F)(F)F)nc3)CC2)CC1 [Example 48] | 16% | 21% |
| CCC1(C(=O)N2CCC(c3ccc(C(F)(F)F)cn3)CC2)COC1 [Example 10] | 25% | 29% |
| C[C@H]1C[C@@H](c2ccc(C(F)(F)F)nc2)CCN1C(=O)C1(C)COC1 [Example 16] | 26% | 106% |
| C[C@H]1C[C@H](c2ccc(C(F)(F)F)nc2)CCN1C(=O)C1(C)COC1 [Example 17] | 28% | 40% |
| CC1(C)CN(C(=O)N2CCC(c3ccc(C(F)(F)F)nc3)CC2)CCO1 [Example 61] | 72% | 49% |
| CC1(C)CC(C(=O)N2CCC(c3ccc(C(F)(F)F)nc3)CC2)CCO1 (stereo not shown) [Example 51] | 100% | 87% |
| O=C([C@@H]1CCCO1)N1CCC(c2ccc(C(F)(F)F)nc2)CC1 [Example 28] | 23% | 63% |
| CC1(C(=O)N2CCC(c3ccc(C(F)(F)F)nc3)C2)COC1 (stereo not shown) [Example 14] | 37% | 22% |
| CC1(C(=O)N2CCC(c3cccnc3C(F)(F)F)CC2)CNC1 [Example 34] | 43% | 127% |
| CC1(C(=O)N2CCC(c3ccc(C(F)(F)F)nc3)C2)CNC1 (stereo not shown) [Example 39] | 92% | 70% |
| CC1(C(=O)N2CCC(c3ccnc(C(F)(F)F)c3)CC2)COC1 [Example 52] | 36% | 100% |
| O=C(C1CCOC1)N1CCC(c2ccc(C(F)(F)F)nc2)CC1 (stereo not shown) [Example 24] | 46% | 39% |
| CC1(C(=O)N2CCC(c3cnccc3C(F)(F)F)CC2)COC1 [Example 3, (3-methyloxetan-3-yl){4-[4-(trifluoromethyl)pyridin-3-yl]piperidin-1-yl}methanone] | 6% | 10% |
| O=C(N1CCC(c2ccc(C(F)(F)F)nc2)CC1)N1C[C@H]2CC[C@@H](C1)O2 [Example 62] | 81% | 51% |
| CN1CC(C)(C(=O)N2CCC(c3ccc(C(F)(F)F)nc3)CC2)C1 [Example 41, (1,3-Dimethylazetidin-3-yl){4-[6-(trifluoromethyl)pyridin-3-yl]piperidin-1-yl}methanone hydrochloride] | 57% | 70% |
| CC1(C(=O)N2CCC(c3cccnc3C(F)(F)F)CC2)CN(CC(F)(F)F)C1 [Example 66, [3-Methyl-1-(2,2,2-trifluoroethyl)azetidin-3-yl]{4-[2-(trifluoromethyl)pyridin-3-yl]piperidin-1-yl}methanone] | 30% | 77% |
| CC1(C(=O)N2CCC(c3ccnc(C(F)(F)F)n3)CC2)COC1 [Example 58] | 88% | 116% |
| CC1(C(=O)N2CC(c3ccc(C(F)(F)F)nc3)C2)COC1 [Example 13] | 11% | 7% |
| O=C(C1CCOCC1)N1CCC(c2ccc(C(F)(F)F)nc2)CC1 [Example 22] | 24% | 50% |
| CCC1(C(=O)N2CCC(c3cccnc3C(F)(F)F)CC2)COC1 [Example 7] | 23% | 52% |
| Cc1ccc(C2CCN(C(=O)C3(C)COC3)CC2)cn1 [Example 55] | 75% | 45% |

| SMILES | activity at 0.1 µM | activity at 1 µM |
| --- | --- | --- |
| CCC1(C(=O)N2CCC(c3cnc(C(F)(F)F)c(F)c3)CC2)COC1 [Example 30] | 16% | 56% |
| O=C([C@@H]1CCOC1)N1CCC(c2ccc(C(F)(F)F)nc2)CC1 [Example 26] | 26% | 33% |
| CN1CC(C)(C(=O)N2CCC(c3ccc(C(F)(F)F)nc3)C2)C1 (stereo not shown) [Example 47] | 1% | 55% |
| CCC1(C(=O)N2CCCC(c3ccc(C(F)(F)F)nc3)C2)COC1 (stereo not shown) [Example 12] | 35% | 12% |
| CC1(C(=O)N2CCC(c3ccncc3C(F)(F)F)CC2)COC1 [Example 53] | 106% | 82% |
| O=C([C@H]1CCCO1)N1CCC(c2ccc(C(F)(F)F)nc2)CC1 [Example 27] | 5% | 29% |
| CC1(C(=O)N2CCCC(c3ccc(C(F)(F)F)nc3)C2)COC1 (stereo not shown) [Example 11] | 3% | 97% |
| CC1(C(=O)N2CCC(c3ccc(C(F)(F)F)nc3)CC2)CCOCC1 [Example 23] | 23% | 49% |
| O=C([C@H]1CCOC1)N1CCC(c2ccc(C(F)(F)F)nc2)CC1 [Example 25] | 80% | 71% |
| CCC1(C(=O)N2CC[C@@H](c3ccc(C(F)(F)F)nc3)C[C@@H]2C)COC1 [Example 19] | 5% | 18% |
| Cc1cc(C(F)(F)F)ncc1C1CCN(C(=O)C2(C)COC2)CC1 [Example 31, (3-methyloxetan-3-yl){4-[4-methyl-6-(trifluoromethyl)pyridin-3-yl]piperidin-1-yl}methanone] | 14% | 1% |
| CC1(C(=O)N2CCC(F)(c3ccc(C(F)(F)F)nc3)CC2)COC1 [Example 21] | 73% | 77% |
| CC1(C)COCCN1C(=O)N1CCC(c2ccc(C(F)(F)F)nc2)CC1 [Example 63] | 68% | 58% |
| CC1(C(=O)N2CCCC(c3ccc(C(F)(F)F)nc3)C2)CNC1 (stereo not shown) [Example 38] | 6% | 4% |
| CC1(C(=O)N2CCC(c3cccnc3C(F)(F)F)CC2)COC1 [Example 4, (3-methyloxetan-3-yl){4-[2-(trifluoromethyl)pyridin-3-yl]piperidin-1-yl}methanone] | 30% | 29% |
| CN1CC(C)(C(=O)N2CCC(c3cnccc3C(F)(F)F)CC2)C1 [Example 43, (1,3-dimethylazetidin-3-yl){4-[4-(trifluoromethyl)pyridin-3-yl]piperidin-1-yl}methanone] | 9% | 11% |
| CC1(C(=O)N2CCC(c3cncc(C(F)(F)F)c3)CC2)CNC1 [Example 36] | 78% | 81% |
| CCC1(C(=O)N2CCC(c3cncc(C(F)(F)F)c3)CC2)COC1 [Example 6] | 97% | 81% |
| CC1(C(=O)N2CCC(c3ccc(C(F)(F)F)cn3)CC2)CNC1 [Example 37] | 13% | 106% |
| CCN1CC(C)(C(=O)N2CCC(c3ccc(C(F)(F)F)nc3)CC2)C1 [Example 64] | 109% | 86% |
| CCC1(C(=O)N2CCC(c3ccc(C(F)(F)F)nc3)C2)COC1 (stereo not shown) [Example 15] | 23% | 48% |
| O=C(C1COC1)N1CCC(c2ccc(C(F)(F)F)nc2)CC1 [Example 50] | 86% | 101% |
| CC1(C(=O)N2CCC(c3ccc(C(F)(F)F)nn3)CC2)COC1 [Example 57] | 88% | 50% |
| O=C(C1CCNCC1)N1CCC(c2ccc(C(F)(F)F)nc2)CC1 [Example 40] | 29% | 8% |
| CC1(C(=O)N2CCC(O)(c3ccc(C(F)(F)F)nc3)CC2)COC1 [Example 20] | 2% | 91% |
| CCCN1CC(C)(C(=O)N2CCC(c3ccc(C(F)(F)F)nc3)CC2)C1 [Example 65] | 57% | 80% |
